What all share (experiment): relative viability (nuclei count vs DMSO), 5 days (fraction); higher = more cells survive
Compound in test [1]: CO[C@@H]1[C@H](N(C)C(=O)c2ccccc2)C[C@H]2O[C@]1(C)n1c3ccccc3c3c4c(c5c6ccccc6n2c5c31)C(=O)NC4 [Midostaurin] + O=C(c1cc(Cc2n[nH]c(=O)c3ccccc23)ccc1F)N1CCN(C(=O)C2CC2)CC1 [Olaparib] (partner 8 µM)
An outline of the steps: (§1)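 Nuclei were stained with Hoechst during a one-step fixation (final 0.05% Triton X-100, 1% formaldehyde, 1 ug/ml Hoechst) carried out 5 days after dosing, then counted on 4× images. The cells, lung cancer lines in 1536-well plates, had been dosed by pin tool the day after seeding with one drug alone or a fixed anchor-drug dose plus five library-drug doses (not always all listed) in √10 steps. Relative viability is the nuclei count in treated wells divided by that in vehicle wells, and each value is the median of duplicate plates.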

Compound in test [2]: COc1cc(-c2nn([C@H]3CC[C@H](N4CCN(C(C)=O)CC4)CC3)c3ncnc(N)c23)ccc1NC(=O)c1cc2ccccc2n1C + C[C@@H](Oc1cc(-c2cnn(C3CCNCC3)c2)cnc1N)c1c(Cl)ccc(F)c1Cl [Crizotinib] (partner 1 µM)
In outline: as §1

Compound in test [3]: CO[C@@H]1[C@H](N(C)C(=O)c2ccccc2)C[C@H]2O[C@]1(C)n1c3ccccc3c3c4c(c5c6ccccc6n2c5c31)C(=O)NC4 [Midostaurin] + CS(=O)(=O)N1CCN(Cc2cc3nc(-c4cccc5[nH]ncc45)nc(N4CCOCC4)c3s2)CC1 [Pictilisib] (partner 1 µM)
In outline: as §1

Compound in test [4]: COc1cc(-c2nn([C@H]3CC[C@H](N4CCN(C(C)=O)CC4)CC3)c3ncnc(N)c23)ccc1NC(=O)c1cc2ccccc2n1C + C[C@]1(O)C[C@@H](c2nc(-c3ccc4ccc(-c5ccccc5)nc4c3)c3c(N)nccn32)C1 [Linsitinib] (partner 1 µM)
In outline:
as §1

Compound in test [5]: CO[C@@H]1[C@H](N(C)C(=O)c2ccccc2)C[C@H]2O[C@]1(C)n1c3ccccc3c3c4c(c5c6ccccc6n2c5c31)C(=O)NC4 [Midostaurin] + COc1cc2c(Oc3ccc(NC(=O)C4(C(=O)Nc5ccc(F)cc5)CC4)cc3F)ccnc2cc1OCCCN1CCOCC1 [Foretinib] (partner 0.25 µM)
An outline of the steps:
as §1

On to UMC-11, for which the relative viability in test [1] (first compound 0.01 µM) is 0.354; in test [1] (first compound 0.03162 µM), 0.387; in test [1] (first compound 0.1 µM), 0.303; in test [1] (first compound 0.3162 µM), 0.207; in test [2] (first compound 0.0128 µM), 0.638; in test [2] (first compound 0.04048 µM), 0.627. Besides, the relative viability is 0.64 in test [2] (first compound 0.128 µM); 0.479 in test [2] (first compound 1.28 µM); 0.859 in test [3] (first compound 0.01 µM); 0.602 in test [3] (first compound 0.03162 µM); 0.871 in test [3] (first compound 0.1 µM); 0.663 in test [3] (first compound 0.3162 µM). Moreover, the relative viability in test [4] (first compound 0.0128 µM) was determined as 0.961; in test [4] (first compound 0.04048 µM), 1.01; in test [4] (first compound 0.128 µM), 0.984; in test [4] (first compound 1.28 µM), 0.781; in test [5] (first compound 0.01 µM), 1.08; in test [5] (first compound 0.03162 µM), 0.946. The relative viability in test [5] (first compound 0.1 µM) worked out at 0.868; in test [5] (first compound 0.3162 µM) it was 0.234.
